How the values were obtained:
[1] = tested on: hyperuricemic mice (高尿酸血症小鼠); test: 实验例2: effect of TAZ-3-16 on lowering blood uric acid in hyperuricemic (HUA) model mice (hypoxanthine plus potassium oxonate, repeated stimulation); format: in vivo; conditions: HUA model ICR mice, intragastric, n=10, compared with model control
[2] = tested on: acute hyperuricemic mice (急性高尿酸血症小鼠); test: 实验例3: effect of TAZ-3-19 on lowering blood uric acid in acute hyperuricemia model mice (hypoxanthine plus potassium oxonate); format: in vivo; conditions: acute hyperuricemia ICR mice, intragastric, n=10, compared with model control

Clc1cc(-c2nc(-c3ccncc3)n[nH]2)cc(Cl)c1OCCCN1CCCCC1 [TAZ-3-16]
blood uric acid level ([1]; 0.5 mg/kg once daily for 2 days): 明显降低

CN1CCN(CCCOc2c(Cl)cc(-c3nc(-c4ccncc4)n[nH]3)cc2Cl)CC1 [TAZ-3-19]
decrease of peak blood uric acid ([2]; 0.625 mg/kg): 5.7%
decrease of peak blood uric acid ([2]; 1.25 mg/kg): 34.2%
decrease of peak blood uric acid ([2]; 2.5 mg/kg): 68.0%

Cc1nc(-c2ccc(OCC(C)C)c(C#N)c2)sc1C(=O)O [非布索坦, reference compound]
blood uric acid level ([1]; 1 mg/kg once daily for 2 days): 明显降低

From patent publication CN113354616A, “二芳基-1,2,4-三唑类化合物及其制法和药物用途” (Institute of Materia Medica of CAMS and PUMC, priority 2020, dated 2021)
